Earlier results as cited in patent publication US8147876B2, “Medical agent for preventing or treating diseases resulting from one of inflammation and remodeling, and method for preventing or treating the diseases” (National University Corporation Tokyo Medical and Dental …, priority 2007, dated 2012).

System: VCAM-1
Details: human tracheal smooth muscle cells, J Cell Physiol. 2006

Which “TNFα-induced VCAM-1 expression” value does the source give for `COc1cc(/C=C/C(=O)CC(=O)/C=C/c2ccc(O)c(OC)c2)ccc1O` [Curcumin] here?
The value was “inhibit”.
